In ChEMBL document CHEMBL3792323, “Piperidine derivatives as nonprostanoid IP receptor agonists” (Bioorg Med Chem Lett, 2016):

What was measured:
[1] = molecular target: T1, Prostaglandin E2 receptor EP1 subtype (Homo sapiens, UniProt P34995); assay: Binding affinity to human EP1 receptor by competitive binding assay
T1 sequence (P34995 whole entry): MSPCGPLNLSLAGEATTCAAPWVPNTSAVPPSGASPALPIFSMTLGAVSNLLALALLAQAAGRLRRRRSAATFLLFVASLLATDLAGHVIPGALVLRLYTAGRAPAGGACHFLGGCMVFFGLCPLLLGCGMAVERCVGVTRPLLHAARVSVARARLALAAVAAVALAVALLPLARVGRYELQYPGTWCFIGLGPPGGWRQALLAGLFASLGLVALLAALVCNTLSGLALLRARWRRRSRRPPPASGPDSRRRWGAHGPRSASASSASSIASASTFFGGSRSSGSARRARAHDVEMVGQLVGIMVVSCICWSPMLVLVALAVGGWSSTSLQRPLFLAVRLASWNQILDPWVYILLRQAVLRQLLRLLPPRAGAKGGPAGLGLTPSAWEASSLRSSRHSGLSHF

[2] = molecular target: Prostaglandin E2 receptor EP4 subtype (Homo sapiens, UniProt P35408); assay: Binding affinity to human EP4 receptor by competitive binding assay
[3] = Cmax in fasted dog at 2.5 mg/kg, po; assay type: ADME, organism-based, Canis lupus familiaris; set-up: dose 2.5 mg/kg, route oral; details: in vivo
Thromboxane A2 receptor = molecular target: T2, Thromboxane A2 receptor (Homo sapiens, UniProt P21731); assay: Binding affinity to human TP receptor by competitive binding assay
T2 sequence (P21731 whole entry): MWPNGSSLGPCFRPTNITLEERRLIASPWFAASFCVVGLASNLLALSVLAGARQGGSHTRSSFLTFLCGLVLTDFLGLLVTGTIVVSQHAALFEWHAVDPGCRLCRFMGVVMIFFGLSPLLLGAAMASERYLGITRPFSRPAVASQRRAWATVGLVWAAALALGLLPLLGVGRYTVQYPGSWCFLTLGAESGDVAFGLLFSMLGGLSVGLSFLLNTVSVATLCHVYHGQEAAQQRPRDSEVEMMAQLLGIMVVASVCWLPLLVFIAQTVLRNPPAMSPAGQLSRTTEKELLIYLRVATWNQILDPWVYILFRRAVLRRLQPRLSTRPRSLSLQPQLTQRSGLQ

[4] = molecular target: Prostaglandin E2 receptor EP2 subtype (Homo sapiens, UniProt P43116); assay: Binding affinity to human EP2 receptor by competitive binding assay
[5] = molecular target: Prostaglandin F2-alpha receptor (Homo sapiens, UniProt P43088); assay: Binding affinity to human FP receptor by competitive binding assay
Prostacyclin receptor = Prostacyclin receptor (Homo sapiens, UniProt P43119); assay: Binding affinity to human IP receptor by competitive binding assay
[6] = Oral bioavailability in fasted dog at 2.5 mg/kg; assay type: ADME, organism-based, Canis lupus familiaris; details: in vivo
[7] = molecular target: T3, Prostaglandin E2 receptor EP3 subtype (Homo sapiens, UniProt P43115); assay: Binding affinity to human EP3 receptor by competitive binding assay
T3 sequence (P43115 whole entry): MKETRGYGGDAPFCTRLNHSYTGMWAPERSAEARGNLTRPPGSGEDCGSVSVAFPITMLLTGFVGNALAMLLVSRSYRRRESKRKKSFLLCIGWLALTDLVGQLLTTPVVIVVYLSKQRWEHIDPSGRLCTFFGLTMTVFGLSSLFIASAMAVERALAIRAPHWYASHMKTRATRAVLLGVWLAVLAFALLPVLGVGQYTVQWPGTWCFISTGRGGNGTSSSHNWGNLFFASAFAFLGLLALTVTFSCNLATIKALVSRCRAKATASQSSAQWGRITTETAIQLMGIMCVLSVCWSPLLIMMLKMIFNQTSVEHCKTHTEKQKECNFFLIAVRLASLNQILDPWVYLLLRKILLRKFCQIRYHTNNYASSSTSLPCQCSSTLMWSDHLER

Prostacyclin receptor, sequence (P43119 whole entry): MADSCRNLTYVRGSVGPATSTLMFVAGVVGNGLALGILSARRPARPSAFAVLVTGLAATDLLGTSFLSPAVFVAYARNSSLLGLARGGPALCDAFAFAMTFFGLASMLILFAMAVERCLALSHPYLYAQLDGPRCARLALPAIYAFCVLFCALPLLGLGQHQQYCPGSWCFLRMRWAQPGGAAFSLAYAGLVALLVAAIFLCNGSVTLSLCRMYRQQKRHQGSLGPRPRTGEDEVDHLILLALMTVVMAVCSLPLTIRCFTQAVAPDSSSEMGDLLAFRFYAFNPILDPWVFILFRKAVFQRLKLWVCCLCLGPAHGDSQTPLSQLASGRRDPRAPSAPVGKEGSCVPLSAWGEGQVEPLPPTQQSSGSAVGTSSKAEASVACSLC
Prostaglandin F2-alpha receptor, sequence (P43088 whole entry): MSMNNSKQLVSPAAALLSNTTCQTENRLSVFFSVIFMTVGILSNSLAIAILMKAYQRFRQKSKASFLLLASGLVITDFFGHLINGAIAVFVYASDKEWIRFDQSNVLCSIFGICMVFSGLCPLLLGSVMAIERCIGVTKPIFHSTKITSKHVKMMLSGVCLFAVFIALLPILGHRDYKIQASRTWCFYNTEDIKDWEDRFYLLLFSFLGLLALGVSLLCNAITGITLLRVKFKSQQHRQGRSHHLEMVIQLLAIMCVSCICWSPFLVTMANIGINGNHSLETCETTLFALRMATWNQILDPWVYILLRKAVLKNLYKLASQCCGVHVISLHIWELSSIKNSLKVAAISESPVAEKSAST
Prostaglandin E2 receptor EP2 subtype, sequence (P43116 whole entry): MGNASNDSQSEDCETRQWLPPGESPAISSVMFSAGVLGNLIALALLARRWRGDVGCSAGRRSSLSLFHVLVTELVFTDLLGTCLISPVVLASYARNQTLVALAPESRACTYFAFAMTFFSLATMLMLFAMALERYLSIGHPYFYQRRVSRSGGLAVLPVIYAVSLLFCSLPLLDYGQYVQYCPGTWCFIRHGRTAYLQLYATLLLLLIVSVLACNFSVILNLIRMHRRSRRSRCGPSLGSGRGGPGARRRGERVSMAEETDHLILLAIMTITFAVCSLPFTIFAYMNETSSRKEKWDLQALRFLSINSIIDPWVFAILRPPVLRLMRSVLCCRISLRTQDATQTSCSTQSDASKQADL
Prostaglandin E2 receptor EP4 subtype, sequence (P35408 whole entry): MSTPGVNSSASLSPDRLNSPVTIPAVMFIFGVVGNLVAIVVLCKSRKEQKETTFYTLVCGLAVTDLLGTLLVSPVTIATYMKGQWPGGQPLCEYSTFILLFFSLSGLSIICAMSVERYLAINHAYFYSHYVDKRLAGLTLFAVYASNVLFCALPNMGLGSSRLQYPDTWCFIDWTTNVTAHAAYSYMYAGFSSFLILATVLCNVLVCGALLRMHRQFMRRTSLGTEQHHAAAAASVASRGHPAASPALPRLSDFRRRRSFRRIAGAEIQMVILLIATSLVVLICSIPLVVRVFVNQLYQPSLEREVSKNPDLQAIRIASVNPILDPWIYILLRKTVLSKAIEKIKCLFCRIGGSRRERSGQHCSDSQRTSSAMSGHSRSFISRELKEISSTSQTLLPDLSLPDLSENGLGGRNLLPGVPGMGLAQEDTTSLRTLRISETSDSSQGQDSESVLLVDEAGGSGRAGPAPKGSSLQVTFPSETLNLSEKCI

Row | Ki [1] [µM] | Ki [2] [µM] | Cmax [3] [ng/mL] | Ki (Thromboxane A2 receptor) [µM] | Ki [4] [µM] | Ki [5] [µM] | Ki (Prostacyclin receptor) [µM] | bioavailability [6] [%] | Ki [7] [µM] | SMILES
1 | > 50 | > 50 | 1610 | > 50 | > 50 | > 50 | 0.99 | 77 | > 50 | Cc1ccc(N(CCN2CCC(OCC(=O)O)CC2)C(=O)c2ccccc2)cc1
2 |  |  | 138 |  |  |  |  | 13 |  | O=C(O)COc1cccc2c1OCCN2CCN(C(=O)c1ccccn1)c1ccc(Cl)cc1
